Assay results reported in BindingDB's records for doi:10.1002/cmdc.200500017 (2006).

Target: T1, Fatty-acid amide hydrolase 1 [30-579] (Rattus norvegicus, UniProt P97612)
T1 construct: 30-579
T1 sequence (P97612 whole entry): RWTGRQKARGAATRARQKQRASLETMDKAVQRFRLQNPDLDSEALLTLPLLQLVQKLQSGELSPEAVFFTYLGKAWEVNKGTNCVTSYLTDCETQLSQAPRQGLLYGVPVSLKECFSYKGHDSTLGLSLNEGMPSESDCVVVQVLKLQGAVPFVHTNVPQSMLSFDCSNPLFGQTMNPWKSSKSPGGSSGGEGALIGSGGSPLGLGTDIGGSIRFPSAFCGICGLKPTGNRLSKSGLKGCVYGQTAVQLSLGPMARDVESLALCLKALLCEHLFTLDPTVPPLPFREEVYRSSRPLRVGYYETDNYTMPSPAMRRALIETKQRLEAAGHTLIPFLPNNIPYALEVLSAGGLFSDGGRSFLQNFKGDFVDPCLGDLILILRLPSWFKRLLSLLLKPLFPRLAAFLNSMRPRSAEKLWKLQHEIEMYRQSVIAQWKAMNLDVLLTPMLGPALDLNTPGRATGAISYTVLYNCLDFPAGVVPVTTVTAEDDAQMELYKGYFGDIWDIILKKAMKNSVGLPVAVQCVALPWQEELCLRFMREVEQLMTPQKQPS
Experiment: FAAH Inhibition Assay
Method: Membrane fractions were prepared from Wistar rat brain homogenates, and FAAH activity were assayed by using [3H]anandamide (anandamide[ethanolamine-3H], 60 Cimmol-1, from American Radiolabeled Chemicals, St. Louis, USA) as a substrate.

SMILES	IC50 [nM]
O=C(NC1CCCCC1)Oc1cc(-c2ccccc2)ccc1[N+](=O)[O-] [FAAH Inhibitor, 2a]	> 30000
Nc1ccc(-c2ccccc2)cc1OC(=O)NC1CCCCC1 [FAAH Inhibitor, 2b]	4830
O=C(NC1CCCCC1)Oc1ccc([N+](=O)[O-])c(-c2ccccc2)c1 [FAAH Inhibitor, 2c]	> 30000
Nc1ccc(OC(=O)NC2CCCCC2)cc1-c1ccccc1 [FAAH Inhibitor, 2d]	52
NC(=O)c1ccc(OC(=O)NC2CCCCC2)cc1-c1ccccc1 [FAAH Inhibitor, 2e]	252
Cc1ccc(OC(=O)NC2CCCCC2)cc1-c1ccccc1 [FAAH Inhibitor, 2f]	176
O=C(NC1CCCCC1)Oc1ccc(O)c(-c2ccccc2)c1 [FAAH Inhibitor, 2g]	45
O=C(NC1CCCCC1)Oc1ccc(CO)c(-c2ccccc2)c1 [FAAH Inhibitor, 2h]	46
CN(C)c1ccc(OC(=O)NC2CCCCC2)cc1-c1ccccc1 [FAAH Inhibitor, 2i]	1590
O=C(NC(=O)c1ccc(OC(=O)NC2CCCCC2)cc1-c1ccccc1)NC1CCCCC1 [FAAH Inhibitor, 2j]	2740
O=C(NC1CCCCC1)Oc1ccc2ccn(-c3ccccc3)c2c1 [FAAH Inhibitor, 2k]	1030
O=C(NC1CCCCC1)Oc1cccc(Oc2cccc(-c3ccccc3)c2)c1 [FAAH Inhibitor, 2l]	2740
